Experimental data published in patent US6617315B1, “Therapeutic compounds” (priority 1996, dated 2003).

Tests used:
HCMV strain AD169 = test: Human Cytomegalovirus (HCMV) assay, antiviral effect by HCMV DNA hybridization; assay type: cell-based; settings: HCMV strain AD169 on MRC5 cell monolayers, 96 well plates, 5 days incubation, HCMV DNA by blotting and quantitative specific DNA hybridization
Experimental: Human Cytomegalovirus (HCMV) Assay
(§1) HCMV strain AD169 was grown on monolayers of human embryonic lung cells (MRC5 cells) in 96 well plates. After infection of the cells at a ratio of approximately 0.01 infectious virus particals per cell, the compounds to be tested were added to selected wells at six different concentrations, each in triplicate The same concentrations of compound were also applied to wells containing monolayers of uninfected cells in order to assess compound cytotoxicity. The plates were incubated for 5 days, and the minimum cytotoxic dose was estimated from microscopic examination. The IC50 for antiviral effect was estimated from measurements of HCMV DNA in each well by blotting and quantitative specific DNA hybridization, similar to the method of Gadler. (Antimicrob. Agents Chemother. 1983, 24, 370-374).

[1] = Compound cytotoxicity on uninfected MRC5 cell monolayers; assay type: cell-based, human; settings: uninfected MRC5 cell monolayers (human embryonic lung cells); uninfected human embryonic lung cells (MRC5), 5 days incubation, estimated from microscopic examination; read-out: MRC5 tox CC50
Experimental: as §1

MRC5 cells = test: as above; assay type: cell-based, human
Experimental: as §1

Molecule	melting point	IC50 (HCMV strain AD169; Human betaherpesvirus 5, 120 h)	CC50 at 5 days [1]	IC50 (HCMV strain AD169)	CC50 (MRC5 cells)
CC(C)Nc1nc2cc(F)c(F)cc2n1[C@H]1O[C@@H](CO)[C@H](O)[C@@H]1O [Example 46, 5,6-Difluoro-2-(isopropylamino)-1-(beta-L-ribofuranosyl)-1H-benzimidazole]	156 to 158 °C				
CC(C)Nc1nc2cc(Cl)c(Cl)cc2n1[C@H]1O[C@@H](CO)C[C@@H]1O [Example 16, 5,6-Dichloro-1-(3-deoxy-beta-L-ribofuranosyl)-2-isopropylamino-1H-benzimidazole]	153 to 155 °C	0.2 µM	100 µM		
CC(C)Nc1nc2cc(Cl)c(Cl)cc2n1[C@@H]1C[C@@H](O)[C@H](CO)O1 [Example 19, 5,6-Dichloro-1-(2-deoxy-beta-L-erythro-pentofuranosyl)-2-isopropylamino-1H-benzimidazole]	114 to 115 °C	0.1 µM	100 µM		
C[C@@H]1O[C@H](n2c(NC3CC3)nc3cc(Cl)c(Cl)cc32)[C@@H](O)[C@H]1O [Example 1, 2-Cyclopropylamino-5,6-dichloro-1-(5-deoxy-beta-L-ribofuranosyl)-1H-benzimidazole]	186 to 187 °C	2.1 µM	100 µM		
CC(C)Nc1nc2cc(Cl)c(Cl)cc2n1[C@H]1O[C@@H](C)[C@H](O)[C@@H]1O [Example 3, 2-Isopropylamino-5,6-dichloro-1-(5-deoxy-beta-L-ribofuranosyl)-1H-benzimidazole]	103 to 105 °C	0.6 µM	30 µM		
CC(C)Nc1nc2c(Cl)c(Cl)c(Cl)cc2n1[C@H]1O[C@@H](CO)[C@H](O)[C@@H]1O [Example 31, 2-(Isopropylamino)-4,5,6-trichloro-1-(beta-L-ribofuranosyl)-1H-benzimidazole]	223 to 224 °C				
C[C@@H]1O[C@H](n2c(Br)nc3cc(Cl)c(Cl)cc32)[C@@H](O)[C@H]1O [Example 4, 2-Bromo-5,6-dichloro-1-(5-deoxy-beta-L-ribofuranosyl)-1H-benzimidazole]	136 to 138 °C				
CC(C)Nc1nc2c(Cl)cc(Cl)cc2n1[C@H]1O[C@@H](CO)[C@H](O)[C@@H]1O [Example 53, 4,6-Dichloro-2-(isopropylamino)-1-(beta-L-ribofuranosyl)-1H-benzimidazole]	212 to 214 °C	0.15 µM	100 µM		
CC(C)Nc1nc2c(Br)c(Cl)c(Cl)cc2n1[C@H]1O[C@@H](CO)[C@H](O)[C@@H]1O [Example 39, 4-Bromo-5,6-dichloro-2-(isopropylamino)-1-(beta-L-ribofuranosyl)-1H-benzimidazole]	221 to 222 °C				
2-(Isopropylamino)-4,5,6-trichloro-1-(beta-L-erythro-pentofuranosyl)-1H-benzimidazole [Example 58]				0.15 µM	20 µM
CC(C)Nc1nc2cc(Cl)c(Cl)cc2n1[C@H]1O[C@@H](CCl)[C@H](O)[C@@H]1O [Example 12, 1-(5-Chloro-5-deoxy-beta-L-ribofuranosyl)-5,6-dichloro-2-isopropylamino-1H-benzimidazole]	95 to 97 °C	1.4 µM	30 µM		
CC(C)(C)Nc1nc2cc(Cl)c(Cl)cc2n1[C@H]1O[C@@H](CCl)[C@H](O)[C@@H]1O [Example 14, 2-tert-Butylamino-1-(5-Chloro-5-deoxy-beta-L-ribofuranosyl)-5,6-dichloro-1H-benzimidazole]	112 to 114 °C	1 µM	30 µM		
CC(C)Nc1nc2c(Cl)cccc2n1[C@H]1O[C@@H](CO)[C@H](O)[C@@H]1O [Example 50, 4-Chloro-2-(isopropylamino)-1-(beta-L-ribofuranosyl)-1H-benzimidazole]	225 to 227 °C				
